Where no end group is shown, it is not given here.
How the values were obtained:
HCMV strain AD169 = settings: for inhibition of HCMV plaque formation as compared to the virus control experiment: 10 micrograms per ml, 7-10 days
HIV-1IIIB = assay: HIV-1 antiviral assay in CEM-SS cells
[1] = tested on: Tumor Necrosis Factor-α (TNF-α) production in murine spleen cells; assay: Th1/Th2 cytokine profiling assay: TNF-α; assay type: cell-based, Balb/c mice; settings: 10 micrograms per ml, Ovalbumin restimulation, 72 hours
[2] = tested on: Interleukin-2 (IL-2) production in murine spleen cells; assay: Th1/Th2 cytokine profiling assay: IL-2; assay type: cell-based, Balb/c mice; settings: 10 micrograms per ml; Ovalbumin restimulation, 72 hours
[3] = tested on: Primary Human endothelial cells (HUVEC); assay: Endothelial cell migration assay; assay type: cell-based; settings: 10 micrograms per ml; 22 hours
Experimental: Thereafter, designated concentration of testing peptides—10 micrograms per ml—was added in duplicate wells.

[4] = tested on: hepatitis B virus (HBV) ayw strain in HepG2-2.2.15 cells; assay: HBV experimental assay system (secreted HBV DNA, TaqMan PCR); assay type: cell-based; settings: 10 micrograms per ml; 6 days; combination 0.95 mole peptide 1 and 1.05 mole peptide 2
[5] = tested on: Interleukin-5 (IL-5) production in murine spleen cells; assay: Th1/Th2 cytokine profiling assay: IL-5; assay type: cell-based, Balb/c mice; settings: 10 micrograms per ml, Ovalbumin restimulation, 72 hours
[6] = tested on: Interferon-γ (IFN-γ) production in murine spleen cells; assay: Th1/Th2 cytokine profiling assay: IFN-γ; assay type: cell-based, Balb/c mice; settings: 10 micrograms per ml; Ovalbumin restimulation, 72 hours; combination 0.95:1.05 mole
HUVEC = assay: Endothelial tube formation assay; assay type: cell-based, human; settings: 10 micrograms per ml; 20 hours
Source text: Positive control was vehicle only.

[7] = tested on: Interleukin-4 (IL-4) production in murine spleen cells; assay: Th1/Th2 cytokine profiling assay: IL-4; assay type: cell-based, Balb/c mice; settings: 10 micrograms per ml, Ovalbumin restimulation, 72 hours

Molecule	antiviral activity of positive control compounds (HIV-1IIIB)	inhibition of HCMV plaque formation as compared to the virus control experiment (HCMV strain AD169)	inhibition of the migration of human endothelial cells [3] [%]	inhibition of HBV replication as compared to the virus control infection [4] [%]	production of IFN-y, decreased by [6] [%]	inhibition of the tube formation of human endothelial cells (HUVEC) [%]	also measured
Nc1nc(O)c2ncn(COC(CO)CO)c2n1 [Ganciclovir, reference compound]							antiviral activity of positive control compound (HCMV strain AD169; positive control, MRC-5 cells, HCMV): expected levels of antiviral activity
CC(C)(C)NC(=O)[C@@H]1CN(Cc2cccnc2)CCN1C[C@@H](O)C[C@@H](Cc1ccccc1)C(=O)N[C@H]1c2ccccc2C[C@H]1O [indinavir]	expected levels of antiviral activity						
Cc1cn([C@H]2C[C@H](N=[N+]=[N-])[C@@H](CO)O2)c(=O)[nH]c1=O [AZT]	expected levels of antiviral activity						
Ile-Asn-Leu-Lys-Ala-Leu-Ala-Ala-Leu-Ala-Lys-Lys-Ile-Leu-NH2 (INLKALAALAKKIL-NH2) [Peptide 2]		did not inhibit	23	40.6	54	10	production of TNF-a, decreased by [1]: 61.3%; production of IL-2, increased by [2]: 77%; change of the production of IL-5 ([5]; combination 0.95:1.05 mole): did not significantly change; change of the production of IL-4 ([7]; combination 0.95:1.05 mole): did not significantly change
CCNC(=O)[C@@H]1CCCN1C(=O)[C@H](CCCN=C(N)N)NC(=O)[C@H](CC(C)C)NC(=O)[C@@H](Cc1c[nH]c2ccccc12)NC(=O)[C@H](Cc1ccc(O)cc1)NC(=O)[C@H](CO)NC(=O)[C@H](Cc1c[nH]c2ccccc12)NC(=O)[C@H](Cc1cnc[nH]1)NC(=O)[C@@H]1CCC(=O)N1 [Peptide 1, Pyr-His-Trp-Ser-Tyr-D-Trp-Leu-Arg-Pro-NHEt]		did not inhibit	3	15.1	31.4	7	change of the production of TNF-alpha ([1]; combination 0.95:1.05 mole): did not significantly change; production of IL-2, decreased by [2]: 53.2%; production of IL-5, decreased by [5]: 27.6%; production of IL-4, induced by [7]: 32.1%

From US20100184698A1, “USE OF A […] […] A […] AGENT” (priority 2007, published 2010)
